Experimental data reported in patent US20110136766A1, “AURORA KINASE INHIBITORS” (Vitae Pharmaceuticals, Inc., priority 2008, published 2011).

Experiments:
[1] = system: MCF-7; experiment: CellTiter-Glo cell viability assay, MCF-7; format: cell-based; details: Homo sapiens, MCF7; Breast Cancer; 240 hrs; 50% growth inhibition relative to control; read-out: MCF-7 IC50
From the text: (§1) The CellTiter-Glo® Luminescent Cell Viability Assay is a homogeneous method of determining the number of viable cells in culture based on quantitation of the ATP present, which signals the presence of metabolically active cells. The homogeneous assay procedure involves addition of a single reagent directly to cells cultured in serum-supplemented medium. The homogeneous format results in cell lysis and generation of a luminescent signal proportional to the amount of ATP present. The CellTiter-Glo® Assay relies on the properties of a proprietary thermostable luciferase (Ultra-Glo. Recombinant Luciferase), which generates a stable glow-type Luminescent signal. The half-life of the luminescent signal resulting from this reaction is greater than five hours. This extended half-life eliminates the need for reagent injectors and provides flexibility for continuous or batch-mode processing of multiple plates. The unique homogeneous format reduces pipetting errors that may be introduced during the multiple steps required by other ATP-measurement methods.
(§2) 96 Well cell culture plates were seeded with 10^3 mammalian cells (Colo205, HL-60, SW620, HCT116, MCF-7 and MV-411) in 100 μl culture medium. The cells were incubated overnight prior to initiating the assay. Control wells were prepared on a plate containing medium only to obtain a value for background luminescence.
(§3) Compounds to be tested were added to experimental wells and incubated for 72 hrs (Colo205, HL-60, MV-411), 168 hrs (HCT116, SW620) or 240 hrs (MCF-7). Wells were also set up to as vehicle controls with the addition of 0.1% DMSO. At the end of the incubation period, the plates were equilibrated to room temperature for approximately 30 minutes.
(§4) Lyophilized CellTiter-Glo® Substrate and the CellTiter-Glo® Buffer were warmed to room temperature. The CellTiter-Glo® Buffer was mixed with the CellTiter-Glo® Substrate to reconstitute the lyophilized enzyme/substrate mixture. This forms the CellTiter-Glo® Reagent. The contents were mixed by gently vortexing, swirling or by inverting the contents to obtain a homogeneous solution. 100 μl of CellTiter-Glo® Reagent was added to the cell culture medium present in each well. The contents were mixed for 2 minutes on an orbital shaker to induce cell lysis. The plates were allowed to incubate at room temperature for 10 minutes to stabilize luminescent signal. The contents of the 96 well cell culture plate were then transferred to a white 96 well Optiplate (Perkin Elmer). The luminescence was recorded on Wallac 1420 VICTOR^2 V Multilabel Platereader (An integration time of 0.25-1 second per well).
(§5) 10 mM DMSO stock Compounds were serially diluted threefold in DMSO. Subsequent dilutions made into cell culture media prior to addition to cells to maintain the DMSO concentration at or below 0.1% to avoid cell toxicity.
(§6) The IC50s in Table 2 are the concentration at which 50% growth inhibition relative to control occurs.

[2] = biological target: T1, full-length human Aurora B/INCENP complex (Homo sapiens, UniProt Q96GD4); experiment: Aurora B phosphocellulose filter binding kinase activity assay; format: biochemical; details: 1.5 nM Aurora B/INCENP complex, 10 μM ATP, 50 μM Kemptide, 45 min; read-out: Aur-B IC50
T1 construct: the full-length human Aurora B (N-terminal GST fusion); GST (N); purchased Carna BioSciences, Japan
T1 sequence (Q96GD4 whole entry, the tested form may be a part): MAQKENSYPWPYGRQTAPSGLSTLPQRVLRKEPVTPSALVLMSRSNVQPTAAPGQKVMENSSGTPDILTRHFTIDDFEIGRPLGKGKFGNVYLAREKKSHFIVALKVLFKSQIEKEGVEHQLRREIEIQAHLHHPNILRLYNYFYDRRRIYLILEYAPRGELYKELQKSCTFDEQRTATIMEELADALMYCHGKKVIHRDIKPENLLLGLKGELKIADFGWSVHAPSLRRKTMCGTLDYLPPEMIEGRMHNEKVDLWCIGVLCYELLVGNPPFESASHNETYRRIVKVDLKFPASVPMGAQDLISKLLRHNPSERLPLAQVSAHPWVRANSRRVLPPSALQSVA
T1 sequence (Q9NQS7 803-918 partner limits assumed): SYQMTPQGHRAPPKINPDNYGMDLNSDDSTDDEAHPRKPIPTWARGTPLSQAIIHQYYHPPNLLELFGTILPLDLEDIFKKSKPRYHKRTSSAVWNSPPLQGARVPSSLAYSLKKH
Method: (§7) Kinase activity of Aurora kinases was measured by phosphocellulose filter binding assay. The full-length human Aurora A carrying His6 tag at the N-terminus (Invitrogen, Carlsbad, Calif.) and the full-length human Aurora B (N-terminal GST fusion) co-expressed and co-purified with the His6-INCENP INBOX, aminoacids 803-918 (Carna BioSciences, Japan) were used as the enzyme in the assays. Tested compounds were diluted in DMSO and pre-incubated with the enzyme and ATP/Mg^2+ mixture for at least 10 minutes. The reaction was started by addition of the Kemptide peptide substrate (LRRASLG) and allowed to proceed for 45 min at room temperature. Each reaction in a final volume of 40 μl contained 50 μM Kemptide, 10 μM [γ-^33P]ATP (1 Ci/mmol) and either 11 nM Aurora A or 1.5 nM Aurora B/INCENP complex in the buffer containing 10 mM MgCl2, 5% DMSO, 20 mM MOPS, pH 7.2, 25 mM β-glycerol phosphate, 5 mM EGTA, 1 mM Na3VO4 and either 0.1 mg/ml of BSA and 1 mM DTT for Aurora A or 0.01% Triton-X100 and 2 mM DTT for Aurora B. The reaction was stopped with 25 μl of 5% H3PO4, and 45 μl of the mixture was transferred into a MultiScreen-PH filterplate (Millipore) pre-washed with 0.85% H3PO4. The filterplate was washed 4 times with 200 μl of 0.85% H3PO4 on a vacuum manifold. Scintillation fluid (50 μl of Ultima Gold™ LLT, PerkinElmer, Waltham, Mass.) was added to each well, and after 1-hr incubation at room temperature the plates were counted on MicroBeta (PerkinElmer, Waltham, Mass.) plate reader. […] Percent inhibition values were calculated based on the counts of the positive and negative controls, and these values were regressed against inhibitor concentration and fit into a four parameter model. From this fit the IC50 values (the inhibitor concentration at which 50% inhibition occurs) were derived as the inflection point on the semi-logarithm inhibition curve.

[3] = system: SW620; experiment: CellTiter-Glo cell viability assay, SW620; format: cell-based; details: Homo sapiens, SW-620; Colorectal cancer; 168 hrs; 50% growth inhibition relative to control; read-out: SW620 IC50
From the text: as §1, §2, §3, §4, §5, §6

[4] = system: MV-411; experiment: CellTiter-Glo cell viability assay, MV-411; format: cell-based; details: Homo sapiens, MV4-11; Leukemia; 72 hrs; 50% growth inhibition relative to control; read-out: MV-411 IC50
From the text: as §1, §2, §3, §4, §5, §6

[5] = system: HL-60; experiment: CellTiter-Glo cell viability assay, HL-60; format: cell-based; details: Homo sapiens, HL-60; Leukemia; 72 hrs; 50% growth inhibition relative to control; read-out: HL-60 IC50
From the text: as §1, §2, §3, §4, §5, §6

[6] = system: HCT116; experiment: CellTiter-Glo cell viability assay, HCT116; format: cell-based; details: Homo sapiens, HCT-116; Colorectal cancer; 168 hrs; 50% growth inhibition relative to control; read-out: HCT116 IC50
From the text: as §1, §2, §3, §4, §5, §6

[7] = system: Colo205; experiment: CellTiter-Glo cell viability assay, Colo205; format: cell-based; details: Homo sapiens, COLO 205; Colorectal cancer; 72 hrs; 50% growth inhibition relative to control; read-out: Colo205 IC50
From the text: as §1, §2, §3, §4, §5, §6

[8] = biological target: T2, full-length human Aurora A (Homo sapiens, UniProt O14965); experiment: Aurora A phosphocellulose filter binding kinase activity assay; format: biochemical; details: 11 nM Aurora A, 10 μM ATP, 50 μM Kemptide, 45 min; read-out: Aur-A IC50
T2 construct: The full-length human Aurora A carrying His6 tag at the N-terminus; His6 (N); purchased Invitrogen, Carlsbad, Calif
T2 sequence (O14965 1-403): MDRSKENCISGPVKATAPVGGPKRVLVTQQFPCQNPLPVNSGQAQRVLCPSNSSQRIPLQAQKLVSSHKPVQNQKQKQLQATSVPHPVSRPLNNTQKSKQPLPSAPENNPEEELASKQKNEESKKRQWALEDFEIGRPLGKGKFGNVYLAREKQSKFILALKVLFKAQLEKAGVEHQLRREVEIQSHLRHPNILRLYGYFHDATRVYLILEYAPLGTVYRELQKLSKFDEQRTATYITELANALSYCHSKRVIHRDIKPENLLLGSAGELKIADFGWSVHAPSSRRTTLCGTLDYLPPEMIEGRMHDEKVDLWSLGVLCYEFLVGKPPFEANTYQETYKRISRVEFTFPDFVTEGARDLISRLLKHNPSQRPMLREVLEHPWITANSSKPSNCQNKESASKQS
Method: as §7

Row | SMILES | IC50 [1] [nM] | IC50 [2] [nM] | IC50 [3] [nM] | IC50 [4] [nM] | IC50 [5] [nM] | IC50 [6] [nM] | IC50 [7] [nM] | IC50 [8] [nM]
1 | O=C(Cc1cc(Nc2ncnc3cc(-c4ccc(C(=O)N5CCN(CCO)CC5)cc4)ccc23)n[nH]1)Nc1cccc(F)c1 [Compound 1, N-(3-fluorophenyl)-2-(3-(7-(4-(4-(2-hydroxyethyl)piperazine-1-carbonyl)phenyl)quinazolin-4-ylamino)-1H-pyrazol-5-yl)acetamide] | 16.9 | 0.48 | 12 | 5.75 | 1.32 | 5.32 | 1.82 | 1.93
2 | CN1CCN(C(=O)c2ccc(-c3ccc4c(Nc5cc(CC(=O)Nc6cccc(F)c6)[nH]n5)ncnc4c3)cc2)CC1 [Compound 2, N-(3-fluorophenyl)-2-(3-(7-(4-(4-methylpiperazine-1-carbonyl)phenyl)quinazolin-4-ylamino)-1H-pyrazol-5-yl)acetamide] | 8.46 | 0.86 | 6.3 | 5.2 | 1.8 | 3.65 | 3.98 | 5.07
3 | O=C(Cc1cc(Nc2ncnc3cc(-c4ccc(S(=O)(=O)N5CCCC5)cc4)ccc23)n[nH]1)Nc1cccc(F)c1 [Compound 3, N-(3-fluorophenyl)-2-(3-(7-(4-(pyrrolidin-1-ylsulfonyl)phenyl)quinazolin-4-ylamino)-1H-pyrazol-5-yl)acetamide] | 5.62 | 0.47 | 2.15 | 5.9 | 1.08 | 4.58 | 2.26 | 6.04
4 | O=C(Cc1cc(Nc2ncnc3cc(-c4ccc(C(=O)N5CCNCC5)cc4)ccc23)n[nH]1)Nc1cccc(F)c1 [Compound 4, N-(3-fluorophenyl)-2-(3-(7-(4-(piperazine-1-carbonyl)phenyl)quinazolin-4-ylamino)-1H-pyrazol-5-yl)acetamide] | 7.7 | 0.71 | 7.81 | 6.05 | 1.32 | 5.66 | 2.11 | 3.77
5 | O=C(Cc1cc(Nc2ncnc3cc(-c4ccc(S(=O)(=O)N5CC[C@H](F)C5)cc4)ccc23)n[nH]1)Nc1cccc(F)c1 [Compound 5, (S)-N-(3-fluorophenyl)-2-(3-(7-(4-(3-fluoropyrrolidin-1-ylsulfonyl)phenyl)quinazolin-4-ylamino)-1H-pyrazol-5-yl)acetamide] | 11.4 | 0.56 | 2.17 | 6.4 | 1.21 | 1.9 | 3.86 | 7.1
6 | O=C(Cc1cc(Nc2ncnc3cc(-c4ccc(S(=O)(=O)N5CC[C@@H](F)C5)cc4)ccc23)n[nH]1)Nc1cccc(F)c1 [Compound 6, (R)-N-(3-fluorophenyl)-2-(3-(7-(4-(3-fluoropyrrolidin-1-ylsulfonyl)phenyl)quinazolin-4-ylamino)-1H-pyrazol-5-yl)acetamide] | 7.8 | 0.63 | 2.4 | 5.79 | 2.26 | 1.9 | 3.9 | 6.29
